Key:
[1] = In vitro EDTA challenge study; assay type: physicochemical
Method in brief: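 Each 89Zr-labeled complex incubated at 37 °C for up to 7 days with EDTA (10, 50 or 100 mM; pH 5 or 7) at 1:100, 1:500 and 1:1000 ligand/EDTA ratios, n=4. Intact fraction sampled from 30 min to 7 d by radio-TLC (0.1 M EDTA pH 5 mobile phase) and gamma counting.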

[2] = In vitro metal competition study; assay type: physicochemical; conditions: PBS pH 7.4, 37 C
Method in brief: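 Each 89Zr-labeled complex (0.1 mM stock) in PBS, pH 7.4, was mixed with 1 mM solutions of Fe(III), Co(II), Zn(II), Cu(II), Mg(II), Ga(III) or Gd(III) salts. Mixtures were incubated at 37 °C for 7 days. 89Zr release was tracked by radio-TLC at 2 h, 1 d, 4 d and 7 d, in triplicate.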

[3] = In vitro serum stability (radio-ITLC); assay type: in vitro ADME; conditions: 37 C, after 7 days
Method in brief: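 89Zr-labeled complexes (70 μCi, 2.59 MBq) incubated in human serum at 37 °C for 7 days (n=4). Analyzed daily by radio-ITLC on ITLC-SA strips with 0.1 M EDTA (pH 5) mobile phase and gamma counting; SEC in PBS after 7 days.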

[4] = Biodistribution studies; assay type: in vivo, female NIH Swiss mice; conditions: mice, intravenous, 72 h post-injection
Method in brief: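 Female NIH Swiss mice (6-8 wk, n=6) received 89Zr-labeled complex, 0.55 MBq (15 μCi)/mouse i.v. via tail vein; organs excised at 2, 4, 24, 48, 72 h, weighed and gamma-counted. %ID/g and %ID/organ derived against a weighed, counted standard; mean±SD, two-tailed unpaired t test.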

% Intact of 89Zr-complexes ([1]; EDTA 100-fold, pH 5.0, 37 C, 1 h): 98.6 ± 0.3%
% Intact of 89Zr-complexes ([1]; EDTA 100-fold, pH 5.0, 37 C, 1 d): 91.8 ± 0.9%
% Intact of 89Zr-complexes ([1]; EDTA 100-fold, pH 5.0, 37 C, 3 d): 84.3 ± 0.7%
% Intact of 89Zr-complexes ([1]; EDTA 100-fold, pH 5.0, 37 C, 5 d): 78.6 ± 1.0%
% Intact of 89Zr-complexes ([1]; EDTA 100-fold, pH 5.0, 37 C, 7 d): 56.5 ± 1.4%
% Intact of 89Zr-complexes ([1]; EDTA 100-fold, pH 7.0, 37 C, 1 h): 99.8 ± 0.1%
% Intact of 89Zr-complexes ([1]; EDTA 100-fold, pH 7.0, 37 C, 1 d): 98.6 ± 0.1%
% Intact of 89Zr-complexes ([1]; EDTA 100-fold, pH 7.0, 37 C, 3 d): 96.8 ± 0.3%
% Intact of 89Zr-complexes ([1]; EDTA 100-fold, pH 7.0, 37 C, 5 d): 94.5 ± 0.5%
% Intact of 89Zr-complexes ([1]; EDTA 100-fold, pH 7.0, 37 C, 7 d): 92.5 ± 0.4%
% Intact of 89Zr-complexes ([1]; EDTA 500-fold, pH 5.0, 37 C, 1 h): 97.4 ± 0.4%
% Intact of 89Zr-complexes ([1]; EDTA 500-fold, pH 5.0, 37 C, 1 d): 89.4 ± 0.7%
% Intact of 89Zr-complexes ([1]; EDTA 500-fold, pH 5.0, 37 C, 3 d): 72.4 ± 1.4%
% Intact of 89Zr-complexes ([1]; EDTA 500-fold, pH 5.0, 37 C, 5 d): 66.7 ± 0.7%
% Intact of 89Zr-complexes ([1]; EDTA 500-fold, pH 5.0, 37 C, 7 d): 53.8 ± 0.8%
% Intact of 89Zr-complexes ([1]; EDTA 500-fold, pH 7.0, 37 C, 1 h): 99.5 ± 0.3%
% Intact of 89Zr-complexes ([1]; EDTA 500-fold, pH 7.0, 37 C, 1 d): 98.2 ± 0.1%
% Intact of 89Zr-complexes ([1]; EDTA 500-fold, pH 7.0, 37 C, 3 d): 94.9 ± 1.1%
% Intact of 89Zr-complexes ([1]; EDTA 500-fold, pH 7.0, 37 C, 5 d): 91.4 ± 0.3%
% Intact of 89Zr-complexes ([1]; EDTA 500-fold, pH 7.0, 37 C, 7 d): 89.3 ± 0.6%
% Intact of 89Zr-complexes ([1]; EDTA 1000-fold, pH 5.0, 37 C, 1 h): 96.3 ± 0.5%
% Intact of 89Zr-complexes ([1]; EDTA 1000-fold, pH 5.0, 37 C, 1 d): 87.3 ± 1.2%
% Intact of 89Zr-complexes ([1]; EDTA 1000-fold, pH 5.0, 37 C, 3 d): 67.5 ± 1.1%
% Intact of 89Zr-complexes ([1]; EDTA 1000-fold, pH 5.0, 37 C, 5 d): 58.9 ± 1.4%
% Intact of 89Zr-complexes ([1]; EDTA 1000-fold, pH 5.0, 37 C, 7 d): 43.7 ± 1.1%
% Intact of 89Zr-complexes ([1]; EDTA 1000-fold, pH 7.0, 37 C, 1 h): 99.2 ± 0.1%
% Intact of 89Zr-complexes ([1]; EDTA 1000-fold, pH 7.0, 37 C, 1 d): 97.9 ± 0.1%
% Intact of 89Zr-complexes ([1]; EDTA 1000-fold, pH 7.0, 37 C, 3 d): 91.5 ± 0.6%
% Intact of 89Zr-complexes ([1]; EDTA 1000-fold, pH 7.0, 37 C, 5 d): 84.9 ± 0.6%
% Intact of 89Zr-complexes ([1]; EDTA 1000-fold, pH 7.0, 37 C, 7 d): 79.4 ± 1.2%
% Intact of 89Zr-complexes ([2]; Co2+, 2 h): 99.1 ± 0.2%
% Intact of 89Zr-complexes ([2]; Co2+, 1 d): 97.2 ± 0.1%
% Intact of 89Zr-complexes ([2]; Co2+, 4 d): 95.3 ± 0.5%
% Intact of 89Zr-complexes ([2]; Co2+, 7 d): 93.5 ± 1.3%
% Intact of 89Zr-complexes ([2]; Cu2+, 2 h): 98.4 ± 0.1%
% Intact of 89Zr-complexes ([2]; Cu2+, 1 d): 95.4 ± 0.2%
% Intact of 89Zr-complexes ([2]; Cu2+, 4 d): 97.5 ± 0.7%
% Intact of 89Zr-complexes ([2]; Cu2+, 7 d): 94.4 ± 1.3%
% Intact of 89Zr-complexes ([2]; Fe3+, 2 h): 99.3 ± 0.1%
% Intact of 89Zr-complexes ([2]; Fe3+, 1 d): 96.8 ± 1.2%
% Intact of 89Zr-complexes ([2]; Fe3+, 4 d): 89.5 ± 0.7%
% Intact of 89Zr-complexes ([2]; Fe3+, 7 d): 84.0 ± 0.4%
% Intact of 89Zr-complexes ([2]; Ga3+, 2 h): 99.2 ± 0.1%
% Intact of 89Zr-complexes ([2]; Ga3+, 1 d): 98.2 ± 0.2%
% Intact of 89Zr-complexes ([2]; Ga3+, 4 d): 93.6 ± 0.6%
% Intact of 89Zr-complexes ([2]; Ga3+, 7 d): 91.1 ± 1.4%
% Intact of 89Zr-complexes ([2]; Gd3+, 2 h): 99.5 ± 0.4%
% Intact of 89Zr-complexes ([2]; Gd3+, 1 d): 97.9 ± 0.4%
% Intact of 89Zr-complexes ([2]; Gd3+, 4 d): 93.2 ± 1.0%
% Intact of 89Zr-complexes ([2]; Gd3+, 7 d): 91.7 ± 2.0%
% Intact of 89Zr-complexes ([2]; Mg2+, 2 h): 99.2 ± 0.2%
% Intact of 89Zr-complexes ([2]; Mg2+, 1 d): 99.4 ± 0.1%
% Intact of 89Zr-complexes ([2]; Mg2+, 4 d): 98.1 ± 0.1%
% Intact of 89Zr-complexes ([2]; Mg2+, 7 d): 96.3 ± 0.4%
% Intact of 89Zr-complexes ([2]; Zn2+, 2 h): 99.0 ± 0.1%
% Intact of 89Zr-complexes ([2]; Zn2+, 1 d): 95.4 ± 0.3%
% Intact of 89Zr-complexes ([2]; Zn2+, 4 d): 89.4 ± 1.5%
% Intact of 89Zr-complexes ([2]; Zn2+, 7 d): 84.7 ± 2.7%
Radio-ITLC peak of complex in human serum [3]: 95.2%
Radioactivity in blood [4]: 0.0005 ± 0.001 % ID per g
Radioactivity in bone [4]: 2.63 ± 0.12 % ID per g
Radioactivity in kidney [4]: 0.32 ± 0.045 % ID per g
Radioactivity in liver [4]: 0.036 ± 0.002 % ID per g
SMILES: O=P1(O)CN2CCN3CCN4CCN(CC2)CP(=O)(O)[O][89Zr]([O]1)([O]P(=O)(O)C3)[O]P(=O)(O)C4 [89Zr-DOTP]

Source: PMC5363373, “Zirconium tetraazamacrocycle complexes display extraordinary stability and provide a new strategy for zirconium-89-based radiopharmaceutical development” (Chemical Science, 2016)
